Measurements taken from patent US20230097009A1, “USE OF COMPOUND IN PREVENTION AND/OR TREATMENT OF PATHOGEN INFECTION IN ANIMALS” (FELICAMED BIOTECHNOLOGY CO., LTD., priority 2020, published 2023).

Columns and labels:
[1] = test system: feline coronavirus; experiment: Treatment of a cat with recurrent wet FIP (Example 1): daily clinical observation, body weight, chest X-ray; format: in vivo; conditions: for body weight: 2.5 kg at enrollment (D0)
Description: A female British shorthair cat (Lele) of 2.5 kg, aged 8 month, unneutered. The cat had symptoms of increased body temperature, mental depression, decreased appetite, and increased abdominal girth in January, 2020. After 1 week, the cat was admitted. On January 18, the cat was diagnosed with feline infectious peritonitis (FIP) positive. After being treated with GS-441524 for 3 days, the cat was then administered with furosemide, Synulox®, prednisolone and itraconazole (P.O., q24h, 10 mg/kg) for 1 month. The drugs were discontinued after ascites regressed. Early in April, the disease recurred, showing decreased food intake and listlessness. […] The cat was enrolled on April 8, and was treated with the drug of the present invention at 2.0 mg/kg (SC, q24h) on days 1-14 (D1-14). Proper supportive treatments were given at the same time, including adjuvant treatment such as Moringa (a hepatoprotective drug), Lysinphirst (lysine) and Doctor Dolittle® (lactoferrin).
The pharmaceutically active compound described above is a pure powder have the following structure. The compound was added to a 0.9% normal saline (50 mL of endotoxin-free water and 0.45 g of NaCl), and the mixture was uniformly mixed and filtered through a filter membrane to give a clarified solution. The diluted compound was stored in a plastic-sealed sterile vial, stored in a refrigerator at 4° C., slowly heated to room temperature before injection, and administered using a disposable syringe. The injection ranged across the back, starting from 2 cm posterior to the scapula to the middle of the lumbar spine, half of the distance of the adjacent chest to flank.
The treatment was given by injection in the morning every day. […]
The hydrothorax completely regressed since about 7 days after the treatment. The body weight increased by 9% during and after the treatment.

[2] = test system: feline infectious peritonitis virus; experiment: Clinical survival of cats with clinically confirmed FIP, treatment group vs control group (Example 2); format: in vivo, cat; conditions: 7 treated vs 8 control cats with FIP; GS-441524 pre-treatment 3 days; 2.0 mg/kg SC q24h D1-D14; death or neurological symptoms = clinical death; 14 days
Text: A total of 15 cats with clinically confirmed FIP were enrolled, with hydrothorax/ascites, positive CT value by PCR, and no neurological symptoms. 8 cats were allocated into the control group, and 7 cats were allocated into the treatment group.
The groups were pre-treated with GS-441524 for 3 days. For the control group, necessary supportive treatment was given on D1—D14.
The occurrence of death or neurological symptoms was judged as clinical death, and the clinical survival curve was plotted after 14 days.
The Log Rank (Mantel-Cox) and Breslow (Generalized Wilcoxon) methods were used for validity test, and both methods indicated a significant difference (P<0.05). The above description is only for the purpose of illustrating the preferred example of the present invention, and is not intended to limit the scope of the present invention. Any modifications, equivalents and the like made without departing from the spirit and principle of the present invention should be included in the protection scope of the present invention.

[3] = D1, cat with FIP, 2.0 mg/kg SC q24h
[4] = D2, cat with FIP, 2.0 mg/kg SC q24h
[5] = D3, cat with FIP, 2.0 mg/kg SC q24h
[6] = D4, cat with FIP, 2.0 mg/kg SC q24h
[7] = D5, cat with FIP, 2.0 mg/kg SC q24h
[8] = D6, cat with FIP, 2.0 mg/kg SC q24h
[9] = D7, cat with FIP, 2.0 mg/kg SC q24h
[10] = D8, cat with FIP, 2.0 mg/kg SC q24h
[11] = D9, cat with FIP, 2.0 mg/kg SC q24h
[12] = D10, cat with FIP, 2.0 mg/kg SC q24h
[13] = D11, cat with FIP, 2.0 mg/kg SC q24h
[14] = D12, cat with FIP, 2.0 mg/kg SC q24h
[15] = D13, cat with FIP, 2.0 mg/kg SC q24h
[16] = D14, cat with FIP, 2.0 mg/kg SC q24h

CN1CCC(c2ncc(-c3cnc(N)c(OCc4cccc(C#CC(C)(C)O)c4)c3)s2)CC1 [the drug of the present invention, 4-(3-(((2-amino-5-(2-(1-methylpiperidin-4-yl)thiazol-5-yl)pyridin-3-yl)oxy)methyl)phenyl)-2-methylbut-3-yn-2-ol]
Body temperature Afternoon [1, 3]: 38.6 °C
Defecation condition [1, 3]: Normal
Respiratory state [1, 3]: Normal
Body temperature Afternoon [1, 4]: 38.1 °C
Defecation condition [1, 4]: Normal
Respiratory state [1, 4]: Normal
Food intake ([1]; D2, cat with FIP, 2.0 mg/kg SC q24h, D0 Decreased intake - 3): Improved - 4
Mental state ([1]; D2, cat with FIP, 2.0 mg/kg SC q24h, D0 Listless - 3): Improved - 4
Body temperature Afternoon [1, 5]: 38 °C
Defecation condition [1, 5]: Normal
Respiratory state [1, 5]: Normal
Food intake ([1]; D3, cat with FIP, 2.0 mg/kg SC q24h, D0 Decreased intake - 3): Good - 5
Mental state ([1]; D3, cat with FIP, 2.0 mg/kg SC q24h, D0 Listless - 3): Good - 5
Body temperature Afternoon [1, 6]: 38.3 °C
Defecation condition [1, 6]: Normal
Food intake [1, 6]: Good
Mental state [1, 6]: Good
Respiratory state [1, 6]: Normal
Body temperature Afternoon [1, 7]: 38.3 °C
Defecation condition [1, 7]: Normal
Food intake [1, 7]: Good
Mental state [1, 7]: Good
Respiratory state [1, 7]: Normal
Body temperature Afternoon [1, 8]: 38.3 °C
Defecation condition [1, 8]: Normal
Food intake [1, 8]: Good
Mental state [1, 8]: Good
Respiratory state [1, 8]: Normal
Body temperature Afternoon [1, 9]: 38.1 °C
Defecation condition [1, 9]: Normal
Food intake [1, 9]: Good
Mental state [1, 9]: Good
Respiratory state [1, 9]: Normal
body weight [1, 9]: 2.75 kg
Body temperature Afternoon [1, 10]: 38 °C
Defecation condition [1, 10]: Normal
Food intake [1, 10]: Good
Mental state [1, 10]: Good
Respiratory state [1, 10]: Normal
Body temperature Afternoon [1, 11]: 38.2 °C
Defecation condition [1, 11]: Normal
Food intake [1, 11]: Good
Mental state [1, 11]: Good
Respiratory state [1, 11]: Normal
Body temperature Afternoon [1, 12]: 38.3 °C
Defecation condition [1, 12]: Normal
Food intake [1, 12]: Good
Mental state [1, 12]: Good
Respiratory state [1, 12]: Normal
Body temperature Afternoon [1, 13]: 38.4 °C
Defecation condition [1, 13]: Normal
Food intake [1, 13]: Good
Mental state [1, 13]: Good
Respiratory state [1, 13]: Normal
Body temperature Afternoon [1, 14]: 38.5 °C
Defecation condition [1, 14]: Normal
Food intake [1, 14]: Good
Mental state [1, 14]: Good
Respiratory state [1, 14]: Normal
Body temperature Afternoon [1, 15]: 38.5 °C
Body temperature Morning [1, 15]: 38.9 °C
Defecation condition [1, 15]: Normal
Food intake [1, 15]: Good
Mental state [1, 15]: Good
Respiratory state [1, 15]: Normal
Body temperature Afternoon [1, 16]: 38.4 °C
Body temperature Morning [1, 16]: 38.4 °C
Defecation condition [1, 16]: Normal
Food intake [1, 16]: Good
Mental state [1, 16]: Good
Respiratory state [1, 16]: Normal
body weight [1, 16]: 2.75 kg
clinical response (appetite, mental state, weight) ([1]; after 2 weeks of treatment, cat with FIP, 2.0 mg/kg SC q24h): remarkable clinical response
body weight increase during and after the treatment ([1]; cat with FIP, 2.0 mg/kg SC q24h D1-14): 9%
body temperature maintained throughout the treatment ([1]; cat with FIP, no fever at enrollment, 2.0 mg/kg SC q24h D1-14): 38-38.5 °C
time after which the hydrothorax completely regressed ([1]; cat with wet FIP (chest), 2.0 mg/kg SC q24h, chest X-ray): about 7 days
clinical survival vs control group, P (Log Rank (Mantel-Cox) and Breslow (Generalized Wilcoxon)) [2]: < 0.05
